Among the data in the supplement of paper PMC10307832 are relative viability values, retold here.

What all share (test): relative viability (nuclei count vs DMSO), 5 days (fraction); higher = more cells survive
Compound in test [1]: NC1(c2ccc(-c3nc4ccn5c(=O)[nH]nc5c4cc3-c3ccccc3)cc2)CCC1 [MK-2206] + N=C(N)NC(=N)NCCc1ccccc1 [Phenformin] (partner 250 µM)
In short, it runs like this:
(§1)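 One day after seeding in 1536-well plates, lung cancer cell lines were dosed by pin tool. Dosing was either single-drug or a fixed anchor-drug dose plus five library-drug doses (not always all listed) in √10 steps. After 5 days, nuclei were stained in one fix-and-stain step and counted on 4× images, and relative viability is the nuclei count of treated wells over that of vehicle wells, given as the median of duplicate plates.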

Compound in test [2]: NC1(c2ccc(-c3nc4ccn5c(=O)[nH]nc5c4cc3-c3ccccc3)cc2)CCC1 [MK-2206] + CC(=O)Nc1cccc(-n2c(=O)n(C3CC3)c(=O)c3c(Nc4ccc(I)cc4F)n(C)c(=O)c(C)c32)c1 [Trametinib] (partner 0.02 µM)
Summed up:
as §1

Compound in test [3]: NC1(c2ccc(-c3nc4ccn5c(=O)[nH]nc5c4cc3-c3ccccc3)cc2)CCC1 [MK-2206] + Cc1cc(Nc2cc(N3CCN(C)CC3)nc(Sc3ccc(NC(=O)C4CC4)cc3)n2)n[nH]1 [Tozasertib] (partner 0.1 µM)
Summed up:
as §1

Compound in test [4]: NC1(c2ccc(-c3nc4ccn5c(=O)[nH]nc5c4cc3-c3ccccc3)cc2)CCC1 [MK-2206] + CS(=O)(=O)CCNCc1ccc(-c2ccc3ncnc(Nc4ccc(OCc5cccc(F)c5)c(Cl)c4)c3c2)o1 [Lapatinib] (partner 2 µM)
Summed up:
as §1

Compound in test [5]: CS(=O)(=O)N1CCN(Cc2cc3nc(-c4cccc5[nH]ncc45)nc(N4CCOCC4)c3s2)CC1 [Pictilisib] + Nc1ncn([C@H]2C[C@H](O)[C@@H](CO)O2)c(=O)n1 [Decitabine] (partner 2 µM)
Summed up: as §1

For H3255, the relative viability in test [1] (first compound 0.01 µM) was determined as 0.357; in test [1] (first compound 0.03162 µM), 0.322; in test [1] (first compound 0.3162 µM), 0.368; in test [1] (first compound 1 µM), 0.343; in test [2] (first compound 0.01 µM), 0.523; in test [2] (first compound 0.03162 µM) it was 0.618. Further, the relative viability in test [2] (first compound 0.3162 µM) is 0.493; in test [2] (first compound 1 µM), 0.502; in test [3] (first compound 0.01 µM), 0.773; in test [3] (first compound 0.03162 µM), 0.663; in test [3] (first compound 0.3162 µM), 0.511; in test [3] (first compound 1 µM) it was 0.703. The relative viability in test [4] (first compound 0.01 µM) is 0.268; in test [4] (first compound 0.03162 µM), 0.224; in test [4] (first compound 0.3162 µM), 0.18; in test [4] (first compound 1 µM) it was 0.192; in test [5] (first compound 0.02 µM) it was 0.667; in test [5] (first compound 0.06325 µM), 0.521. Also, the relative viability in test [5] (first compound 0.6325 µM) came to 0.466; in test [5] (first compound 2 µM), 0.342.

As for Calu-6, the relative viability in test [4] (first compound 0.01 µM) is 1.05; in test [4] (first compound 0.03162 µM), 1.13; in test [4] (first compound 0.3162 µM), 1.09; in test [4] (first compound 1 µM), 0.974.

For the cell line SW 900, the relative viability in test [1] (first compound 0.01 µM) is 0.656; in test [1] (first compound 0.03162 µM) it was 0.71; in test [1] (first compound 0.3162 µM), 0.451; in test [1] (first compound 1 µM), 0.538; in test [2] (first compound 0.01 µM), 0.809; in test [2] (first compound 0.3162 µM), 0.702. Further, the relative viability in test [2] (first compound 1 µM) is 0.86; in test [3] (first compound 0.01 µM), 0.561; in test [3] (first compound 0.03162 µM) it was 0.531; in test [3] (first compound 0.3162 µM), 0.569; in test [3] (first compound 1 µM), 0.698; in test [5] (first compound 0.02 µM) it was 0.367. Also, the relative viability in test [5] (first compound 0.06325 µM) is 0.524; in test [5] (first compound 0.6325 µM) it was 0.45; in test [5] (first compound 2 µM) it was 0.418.

NCI-H650: the relative viability in test [1] (first compound 0.01 µM) was determined as 0.458; in test [1] (first compound 0.03162 µM), 0.473; in test [1] (first compound 0.3162 µM) it was 0.471; in test [1] (first compound 1 µM) it was 0.353; in test [2] (first compound 0.01 µM) it was 0.981; in test [2] (first compound 0.03162 µM), 0.98. Moreover, the relative viability was 1.03 in test [2] (first compound 0.3162 µM); 0.991 in test [2] (first compound 1 µM); 0.703 in test [3] (first compound 0.01 µM); 0.76 in test [3] (first compound 0.03162 µM); 0.751 in test [3] (first compound 0.3162 µM); 0.772 in test [3] (first compound 1 µM). In addition, the relative viability was 0.985 in test [4] (first compound 0.01 µM); 1.07 in test [4] (first compound 0.03162 µM); 0.874 in test [4] (first compound 0.3162 µM); 0.721 in test [4] (first compound 1 µM); 0.336 in test [5] (first compound 0.02 µM); 0.297 in test [5] (first compound 0.06325 µM). The results for the relative viability in test [5] (first compound 0.6325 µM) and in test [5] (first compound 2 µM) were 0.318 and 0.411, respectively.

Consider NCI-H460, for which the relative viability in test [1] (first compound 0.01 µM) came out at 0.489; in test [1] (first compound 0.03162 µM), 0.613; in test [1] (first compound 0.3162 µM), 0.521; in test [1] (first compound 1 µM), 0.45; in test [2] (first compound 0.01 µM) it was 0.154; in test [2] (first compound 0.03162 µM) it was 0.193. In addition, the relative viability stood at 0.0937 in test [2] (first compound 0.3162 µM); 0.0745 in test [2] (first compound 1 µM); 0.362 in test [3] (first compound 0.01 µM); 0.691 in test [3] (first compound 0.03162 µM); 0.601 in test [3] (first compound 0.3162 µM); 0.665 in test [3] (first compound 1 µM). In addition, the relative viability in test [4] (first compound 0.01 µM) turned out to be 0.914; in test [4] (first compound 0.03162 µM), 1.3; in test [4] (first compound 0.3162 µM), 0.914; in test [4] (first compound 1 µM), 0.95; in test [5] (first compound 0.02 µM), 0.528; in test [5] (first compound 0.06325 µM) it was 0.558. Also, the relative viability in test [5] (first compound 0.6325 µM) was 0.301; in test [5] (first compound 2 µM), 0.109.

As to NCI-H2228, the relative viability in test [1] (first compound 0.01 µM) is 0.332; in test [1] (first compound 0.03162 µM) it was 0.326; in test [1] (first compound 0.3162 µM), 0.214; in test [1] (first compound 1 µM), 0.219; in test [2] (first compound 0.01 µM), 0.375; in test [2] (first compound 0.03162 µM), 0.433. The relative viability in test [2] (first compound 0.3162 µM) is 0.284; in test [2] (first compound 1 µM), 0.448; in test [3] (first compound 0.01 µM), 0.388; in test [3] (first compound 0.03162 µM), 0.235; in test [3] (first compound 0.3162 µM) it was 0.221; in test [3] (first compound 1 µM) it was 0.11. For the same cell line, the relative viability came out at 1.12 in test [4] (first compound 0.01 µM), 1.01 in test [4] (first compound 0.03162 µM), 0.641 in test [4] (first compound 0.3162 µM) and 0.373 in test [4] (first compound 1 µM).

With NCI-H2085, the relative viability in test [1] (first compound 0.01 µM) amounted to 0.713; in test [1] (first compound 0.03162 µM) it was 0.834; in test [1] (first compound 0.3162 µM) it was 0.681; in test [1] (first compound 1 µM) it was 0.59; in test [2] (first compound 0.01 µM), 0.527; in test [2] (first compound 0.03162 µM) it was 0.52. For the same cell line, the relative viability in test [2] (first compound 0.3162 µM) stood at 0.292; in test [2] (first compound 1 µM), 0.36; in test [3] (first compound 0.01 µM), 0.781; in test [3] (first compound 0.03162 µM) it was 0.793; in test [3] (first compound 0.3162 µM), 0.786; in test [3] (first compound 1 µM), 0.716. The relative viability is 0.773 in test [4] (first compound 0.01 µM); 0.81 in test [4] (first compound 0.03162 µM); 0.605 in test [4] (first compound 0.3162 µM); 0.467 in test [4] (first compound 1 µM); 0.521 in test [5] (first compound 0.02 µM); 0.631 in test [5] (first compound 0.06325 µM). In addition, the results for the relative viability in test [5] (first compound 0.6325 µM) and in test [5] (first compound 2 µM) were 0.511 and 0.369, respectively.

HCC-366: the relative viability is 0.614 in test [1] (first compound 0.01 µM); 0.686 in test [1] (first compound 0.03162 µM); 0.564 in test [1] (first compound 0.3162 µM); 0.39 in test [1] (first compound 1 µM); 0.302 in test [2] (first compound 0.01 µM); 0.384 in test [2] (first compound 0.03162 µM). Further, the relative viability stood at 0.204 in test [2] (first compound 0.3162 µM); 0.223 in test [2] (first compound 1 µM); 0.159 in test [3] (first compound 0.01 µM); 0.0953 in test [3] (first compound 0.03162 µM); 0.165 in test [3] (first compound 0.3162 µM); 0.0632 in test [3] (first compound 1 µM). For the same cell line, the relative viability in test [4] (first compound 0.01 µM) was 1.05; in test [4] (first compound 0.03162 µM) it was 1.09; in test [4] (first compound 0.3162 µM) it was 1.08; in test [4] (first compound 1 µM), 1.16; in test [5] (first compound 0.02 µM) it was 0.335; in test [5] (first compound 0.06325 µM) it was 0.304. Further, the relative viability is 0.194 in test [5] (first compound 0.6325 µM) and 0.114 in test [5] (first compound 2 µM).
